Where two headings read alike, the source gives them in different places.
Key:
L1210 leukemia cells = experiment: MTT cytotoxicity on L1210 cells; type: cell-based, murine; settings: 72 hr incubation
Description: The P815 and L1210 cell lines were obtained from American Type Tissue Culture Collection (ATCC). The cell lines were grown in Delbecco's Modified Eagle Medium (DMEM, Atlanta Biologicals) supplemented with 10% fetal bovine serum, Hepes Buffer (2 mM, Mediatech Cellgro, 25-060-Cl), L-Glutamine (2 mM, Mediatech Cellgro), and penicillin/streptomycin (50,000 units penicillin, 50,000 […], Atlanta Biologicals). Cells were maintained at 37° C. in a 5% humidified CO2 atmosphere. Cultured cells were counted using a hemocytometer and resuspended in fresh DMEM at a concentration of 8×10^5 cells/mL. This cell suspension (100 μL) was added to 96 well flat -bottom cell culture plates. At this concentration, 80,000 cells were seeded in each well. Drug solutions (dissolved in DMSO and diluted in DMEM) were added to each well (5 μL/well) resulting in final concentrations ranging from 1×10^−4 to 1×10^−12 M. Quadruplicate wells were prepared for each drug concentration. The plates were incubated for 72 hr at 37° C. in a 5% CO2 atmosphere. MTT (3-(4,5-dimethylthiazol-2-yl)-2,5-diphenyl tetrazolium bromide) was dissolved in PBS (5 mg/ml). After the indicated cell incubation period, 10 μL of this stock MTT solution was added to each well and the plates were further incubated for 4 h at 37° C. in a 5% CO2 atmosphere. […] The contents of the well were mixed thoroughly by pipetting the cell suspension up and down and the plates were allowed to sit at room temperature for 15 min in order to allow for full development of the purple color. The plates were read on a Dynatech Plate Reader, utilizing Dynex Revelation 3.2 software, with a test wavelenth of 570 nm and a reference wavelength of 630 nm.

Description for HS 578T: The compounds of this invention were also tested against the panel of 60 human cancer cell lines at the National Cancer Institute, Bethesda, Md. (44). The cytrotoxicity studies were conducted using a 48 hour exposure, and measuring the optical density of sulforhodamide B-derived color.
Description for OVCAR-5: (§1) The compounds of this invention were also tested against the panel of 60 human cancer cell lines at the National Cancer Institute, Bethesda, Md. […] The cytrotoxicity studies were conducted using a 48 hour exposure, and measuring the optical density of sulforhodamide B-derived color.
Description for U251: as §1
Description for UO-31: as §1

O=C(Nc1cc(O)ccc1CCCl)c1cc2cc(NC(=O)c3cc4ccccc4o3)ccc2[nH]1 [Compound 1, 4-(2-Chloroethyl)-3-[5-(5-benzofuran-2-carboxamido)indole-2-carboxamido]phenol]
IC50 (L1210 leukemia cells): 23 µM | CC50 (U251): 53.9 µM | CC50 (OVCAR-5): 20 µM | Percent Growth (OVCAR-5): −29% | GI50 (OVCAR-5; OVCAR-5): 2280 nM | TGI (OVCAR-5; OVCAR-5): 5.80E−06 Molar | Percent Growth (OVCAR-5; OVCAR-5, Log10 Concentration −4.0): −99% | Percent Growth (OVCAR-5; OVCAR-5, Log10 Concentration −6.0): 94% | Percent Growth (OVCAR-5; OVCAR-5, Log10 Concentration −7.0): 95% | Percent Growth (OVCAR-5; OVCAR-5, Log10 Concentration −8.0): 94% | CC50 (UO-31): 20 µM | CC50 (HS 578T): > 100 µM
